Columns and labels:
CWR22R = assay: MTT growth inhibition, prostate cancer cell line CWR22R; assay type: cell-based, human; conditions: for IC50: Homo sapiens, 22Rv1, MTT, average of three independent experiments
Description: (§1) This MTT assay was carried using human prostate cancer cell lines CWR22R, LAPC-4 and LnCap using Promega cell titer 96 nonradioactive cell proliferation kit. Cells were trypsinized and centrifuged at 1000 rpm for 5 minutes and the supernatant was aspirated. Cells were resuspended with HBSS to a concentration of […]. Cell suspension was diluted in serum containing medium to plate 2000 cells/well/0.2 ml. Cell suspension was transferred to sterile solution basin. Cells were plated using multichannel pipette set at 200 μl and incubated overnight for attachment. One plate was prepared for day 0 MTT assay as follows: 100 μl of media was removed from each well using multichannel pipette and 15 μl of MTT reagent was added. Plates were incubated at 37° C. for 4 hrs. 100 μl of STOP solution was added to each well and incubated at room temperature for 1 hour. Absorbance was measured at 570 and 650 nm on plate reader. All the media from the remaining plates were carefully removed and the cells were treated with the media containing drug. MTT assays were done on days 0, 3, 5 and 7. In the preliminary screening four BPU sulfur analogs 6l, 6h, 6n, 7d and 8h were screened and their activity was compared with compound 1.
(§2) Compounds with significant inhibitory activity in pancreatic cancer cells were further evaluated against prostate cancer cell lines in the MTT assay, (Mosmann, T., J. Immunol. Methods 65:55-63 (1983)) and the results were compared to those for compound 1 (Table 3).

[1] = test system: tubulin (colchicine binding site); assay: Inhibition of [3H]colchicine binding
MCF-7 cells = assay: Apoptosis of MCF-7 cells; assay type: cell-based; conditions: 48 hours
LnCaP = assay: MTT growth inhibition, prostate cancer cell line LnCaP; assay type: cell-based, human; conditions: for IC50: Homo sapiens, LNCaP, MTT, average of three independent experiments
Description: as §1, §2

Panc1 = assay: MTT growth inhibition, pancreatic cancer cell line Panc1; assay type: cell-based; conditions: for IC50: Homo sapiens, PANC-1, MTT, 96-hours treatment, average of three independent experiments
Description: (§3) Eight of these analogs 6d, 6h, 6n, 6g, 7b, 7d, 8g, and 8h were tested for their cytotoxicity in seven pancreatic cell lines ASPC1, Panc1, Panc203, Panc430, Pane 1005, MiaPaca2, and HS766T using MTT assay. Cells were trypsinized, seeded at 5×10^3 cells/well in 96-well plate and allowed to grow for 24 hours before the treatment with exponential increasing concentrations of drugs in the presence of 10% FBS. After a 96-hours period of treatment, 20 μl of MTT solution (5 mg/ml in PBS) were added to each well, and the plates were then incubated for 3 hours at 37° C. Medium was then replaced with 100 μl of DMSO per well. Plates were shaken and the optical density was measured at 570 nm using a multiwell plate reader (Bio-Rad, Model 550, Bio-Rad Inc., Hercules, Calif.). Each experiment was performed in triplicate for each drug concentration and was carried out independently at least 3 times. The IC50 value was defined as the concentration needed for a 50% reduction in the absorbance calculated based on the survival curves. Response to drug treatment was assessed by standardizing treatment groups to untreated controls. Compounds activity was compared with compound 1.
(§4) Biology. Table 2 (Growth Inhibition of Pancreatic Cancer Cell Lines by BPU and BPTU Analogues (IC50)^a)compares the cytotoxicity of a series of new derivatives against a panel of seven pancreatic cancer cell lines, as determined by MTT assay. See, Mosmann, T., J. Immunol. Methods 65:55-63 (1983).

Miapaca2 = assay: MTT growth inhibition, pancreatic cancer cell line Miapaca2; assay type: cell-based; conditions: for IC50: Homo sapiens, MIA PaCa-2, MTT, 96-hours treatment, average of three independent experiments
Description: as §3, §4

Panc203 = assay: MTT growth inhibition, pancreatic cancer cell line Panc203; assay type: cell-based; conditions: for IC50: Homo sapiens, Panc203, MTT, 96-hours treatment, average of three independent experiments
Description: as §3, §4

[2] = test system: seven pancreatic cell lines; assay: MTT growth inhibition, panel of seven pancreatic cancer cell lines; assay type: cell-based; conditions: for times more potent than compound 1, pancreatic cell lines: MTT, seven pancreatic cell lines
Description: as §3, §4

[3] = test system: prostate cancer cell lines CWR22R, LAPC-4 and LnCap; assay: MTT growth inhibition, prostate cancer cell lines (panel); assay type: cell-based, human; conditions: preliminary screening
Description: as §1, with “In the preliminary screening four BPU sulfur analogs 6l, 6h, 6n, 7d and 8h were screened and their activity was compared with compound 1.” left out
as §2

HS766 = assay: MTT growth inhibition, pancreatic cancer cell line HS766; assay type: cell-based; conditions: Homo sapiens, Hs 766, 96-hours treatment, average of three independent experiments
Description: as §3, §4

Panc1005 = assay: MTT growth inhibition, pancreatic cancer cell line Panc1005; assay type: cell-based; conditions: Homo sapiens, 96-hours treatment, average of three independent experiments
Description: as §3, §4

Panc430 = assay: MTT growth inhibition, pancreatic cancer cell line Panc430; assay type: cell-based; conditions: for IC50: Pancreatic cancer cell, MTT, 96-hours treatment, average of three independent experiments
Description: as §3, §4

ASPC1 = assay: MTT growth inhibition, pancreatic cancer cell line ASPC1; assay type: cell-based; conditions: Homo sapiens, 96-hours treatment, average of three independent experiments
Description: as §3, §4

LAPC-4 = assay: MTT growth inhibition, prostate cancer cell line LAPC-4; assay type: cell-based, human; conditions: for IC50: Homo sapiens, LAPC4, MTT, average of three independent experiments
Description: as §1, §2

Row | IC50 (HS766) | IC50 (Panc1005) | IC50 (Panc1) | IC50 (Miapaca2) | IC50 (Panc203) | IC50 (Panc430) | IC50 (ASPC1) | SMILES | other results
1 |  |  |  |  |  |  |  | O=C(NC(=O)c1ccccc1[N+](=O)[O-])Nc1ccc(Sc2ncc(Br)cn2)cc1 [Compound 6n, 1-[4-(5-Bromopyrimidin-2-ylsulfanyl)phenyl]-3-(2-nitrobenzoyl)-urea] | increase in potency of 6n over 6m, CWR22R (CWR22R; sulfide versus ether link): 100 fold; binding to the colchicine binding site (in words) [1]: poor binding affinity; killing of MCF-7 cells compared with 1 (in words) (MCF-7 cells): more potent than 1; increase in potency of 6n over 6m, LnCap (LnCaP; sulfide versus ether link): 20 fold; increase in potency of 6n over 6m, Panc1 (Panc1; sulfide versus ether link): 8 fold; increase in potency of 6n over 6m, Mia-paca2 (Miapaca2; sulfide versus ether link): 8 fold; increase in potency of 6n over 6m, Panc203 (Panc203; sulfide versus ether link): 14 fold; times more potent than compound 1, pancreatic cell lines [2]: 20 time; times more potent than compound 1, prostate cancer cell lines [3]: 20 times
2 | 8 µM | > 10 µM | 7.5 µM | 7 µM | 5.5 µM | 6.5 µM | 6 µM | Nc1ccccc1C(=O)NC(=O)Nc1ccc(Sc2ncccn2)cc1 [Compound 7b] | 
3 |  |  |  |  |  |  |  | Nc1ccccc1C(=O)NC(=O)Nc1ccc(Sc2ncc(Br)cn2)cc1 [Compound 7d, 1-(2-Aminobenzoyl)-3-[4-(5-bromopyrimidin-2-ylsulfanyl)phenyl]urea] | increase in activity of 7d compared to 7c, LAPC-4 (LAPC-4; sulfide versus ether link): 7 fold; increase in activity of 7d compared to 7c, Panc1 (Panc1; sulfide versus ether link): 39 fold; increase in activity of 7d compared to 7c, Miapaca2 (Miapaca2; sulfide versus ether link): 9 fold; increase in activity of 7d compared to 7c, Panc203 (Panc203; sulfide versus ether link): > 117 fold; increase in activity of 7d compared to 7c, Panc430 (Panc430; sulfide versus ether link): > 50 fold; times more potent than compound 1, pancreatic cell lines [2]: 20 time; times more potent than compound 1, prostate cancer cell lines [3]: 20 times
4 |  |  |  |  |  |  |  | Cc1cc(NC(=O)NC(=O)c2ccccc2N(C)C)ccc1Oc1ncc(Br)cn1 [Compound 1] | rate of apoptosis, MCF-7 cells (MCF-7 cells; 10 nM): 16.1%; rate of apoptosis, MCF-7 cells (MCF-7 cells; 30 nM): 19.5%; rate of apoptosis, MCF-7 cells (MCF-7 cells; 100 nM): 27.7%
5 | 8.5 µM | > 10 µM | 9.5 µM | 10 µM | > 10 µM | 7.5 µM | 10 µM | O=C(NC(=S)Nc1ccc(Sc2ncc(Br)cn2)cc1)c1ccccc1 [Compound 6h] | IC50 (CWR22R): > 10 µM; IC50 (LAPC-4): 6 µM; IC50 (LnCaP): > 10 µM
6 |  |  |  |  |  |  |  | O=C(NC(=O)c1ccccc1[N+](=O)[O-])Nc1ccc(Oc2nccc(Br)n2)cc1 [Compound 6m] | binding to the colchicine binding site (in words) [1]: poor binding affinity
7 | 5.5 µM | > 10 µM | > 10 µM | 5 µM | 7.5 µM | 2 µM | > 10 µM | N=C(NC(=O)c1ccccc1)Oc1ccc(Sc2ncc(Br)cn2)cc1 [Compound 6g] | 
8 | 6.5 µM | 5.5 µM | 6.5 µM | 8 µM | 5.5 µM | 5.5 µM | 2.5 µM | O=C(NC(=O)c1ccccc1[N+](=O)[O-])Nc1ccc([S+]([O-])c2ncc(Br)cn2)cc1 (stereo not shown) [Compound 8g, 1-[4-(5-Bromopyrimidine-2-sulfinyl)phenyl]-3-(2-nitrobenzoyl)-urea] | IC50 ([2]; Pancreatic cancer cell, all the cell lines of the panel): 2.5 to 8 µM
9 |  |  |  |  |  |  |  | O=C(NC(=O)c1ccccc1[N+](=O)[O-])Nc1ccc(Sc2ncccn2)cc1 [Compound 6l] | IC50 (CWR22R): 5 µM; IC50 (LAPC-4): 0.6 µM; IC50 (LnCaP): 0.5 µM

Reference: patent US7595326B2, “Synthesis of novel tubulin polymerization inhibitors: benzoylphenylurea (BPU) sulfur analogs” (Champions Biotechnology, Inc., priority 2005, dated 2009)
